Results as given in a melting point compilation (Tetko et al.; mined from patent text by program, amines drawn as free bases though some values may be those of a salt).

Row | Compound | melting point
1 | COc1nc2ccc(Cl)cc2nc1Sc1nnc(C)s1 | 186 to 188 °C
2 | COc1cc2cc3c(Nc4ccc(Sc5nccn5C)c(Cl)c4)c(C#N)cnc3cc2cc1OCCN1CCOCC1 | > 300 °C
3 | O=C1CCC2=C1C(c1ccc(Br)cc1)C1=C(CCS1)N2 (stereo not given) | 253 to 256 °C
4 | COc1ccc2ccc(NC(=O)C3CC3)nc2n1 | 170 °C
5 | Cc1[nH]nc(Oc2ccc([N+](=O)[O-])cc2C(F)(F)F)c1C | 97 to 99 °C
6 | BrCCCCCCCOc1ccc2c(c1)OCO2 | 45 to 47 °C
7 | Nc1nc(N2CCC2)c2ncn(C3C=CC(CO)C3)c2n1 (stereo not given) | 187 to 189 °C
8 | CC(C)CC(NC(=O)C(Cc1ccccc1)NC(=O)C1CCCCC1CS)C(=O)O (stereo not given) | 156 to 158 °C
9 | CNc1nn(C(=O)NC(C)C(C)Cc2ccc(Cl)cc2)c(=O)n1C (stereo not given) | 222 to 224 °C
10 | Cc1cccc(Cl)c1CNC(=O)C(C)Br (stereo not given) | 168 to 169 °C
11 | CCOC(=O)Nc1ccc(OC)nc1 | 76 °C
12 | CNS(=O)(=O)Nc1ccc(OCC2CCN(c3ccncc3)CC2)cc1 | 170 to 172 °C
13 | COC(=O)C1C(=O)CC2CCC1N2C (mixture of isomers) | 104 to 107 °C
14 | CS(=O)(=O)Nc1ccc(SCCCCl)cc1 | 61 to 63 °C
15 | CC1COCc2nc3c(N)nc4ccc(O)cc4c3n21 (stereo not given) | 262 to 264 °C
16 | CC(C)(C)OC(=O)N1CCC[C@@H](OC(=O)Nc2ccc(Cl)cc2)C1 | 160 to 161 °C
17 | COc1ccc(NC(=O)CCc2ccc(-c3c(C)sc4nc(=NS(=O)(=O)c5ccc(C)cc5)sn34)cc2)cc1OC | 203 to 204 °C
18 | CC(C)(CBr)c1cc(Cl)nnc1Cl | 86.5 to 88.5 °C
19 | CC(C)C1(C)N=C(c2ccc(C(C)(C)O)cn2)NC1=O (stereo not given) | 166 to 168 °C
20 | Cn1c(=O)c(-c2nnn(Cc3cccc(OCc4ccc5ccccc5n4)c3)n2)cc2cc(OCCCN3CCN(Cc4ccc5ccccc5n4)CC3)ccc21 | 174 to 178 °C
21 | O=c1oc2ccccc2c(O)c1CCC(O)c1ccccc1 (stereo not given) | 138 to 140 °C
22 | CC1(C)Oc2ccc(C#N)cc2[C@@H](NC(=O)NC(=O)C(Cl)(Cl)Cl)[C@@H]1O (relative stereo) | 231 to 233 °C

Row | Compound | melting point
23 | CCCCCCCSc1nn2c(=O)c(C)c(Cl)nc2s1 | 79 to 81 °C
24 | COc1ccoc1C1OC(=O)NC1=O (stereo not given) | 102 to 104 °C
25 | O=C(NC(CS)Cc1ccccc1)N1CCSCC1 (single isomer, unassigned; (+)) | 98 to 100 °C
26 | COC(=O)c1ccc(SC)c(-c2cc(C)no2)c1C | 94 to 95 °C
27 | CCc1ccc2oc(C(=O)Nc3ccc(-c4ccc(S(=O)(=O)NC(C(=O)O)C(C)C)cc4)cc3)c(C)c2c1O (stereo not given) | 122 to 125 °C
28 | Cc1noc(NS(=O)(=O)c2ccsc2C(=O)NS(=O)(=O)c2cccc3c(N(C)C)cccc23)c1Br | 184 to 186 °C
29 | CS(=O)(=O)NCC1CC2C=CC1C2 (stereo not given) | 60 to 62 °C
30 | O[C@@H](CCOc1cccc2ccccc12)c1ccccc1 | 76 to 78 °C
31 | CC(=Cc1ccc(S)cc1)c1ccc2c(c1)C(C)(C)CCC2(C)C | 97 to 98 °C
32 | CC(=O)CSc1nc2ccccc2n1C | 87 to 88 °C
33 | Cc1ccc(-c2nc(-c3cnccc3C)sc2F)cc1 | 96 °C
34 | COc1ccc(OC)c2c1C[C@@H](O)[C@@H](N)C2 (relative stereo) | 193 to 196 °C
35 | CCCCCCCCCCCCCCCCCCOc1cc(N)cc(C(=O)N(CC(=O)O)CC(=O)O)c1 | 108 to 120 °C
36 | CC1(C)c2ccccc2C(C)(C)C1(S)CC(=O)O | 159 to 161 °C
37 | CCN1c2ncccc2C(=S)N(C)c2cccnc21 | 157 to 158 °C
38 | CCc1nn2c(c1Oc1cc(Cl)cc(Cl)c1)CN(Cc1ccc(C#N)cc1)CC2 | 149 to 150 °C
39 | COc1ccc2c(c1OC)CC(c1ccccc1)CC2C#N (stereo not given) | 118 to 121 °C
40 | CCSc1cc(C#N)c(Cl)cn1 | 103 to 104 °C
41 | CN1C(=O)C(C(=O)Nc2ccc(Oc3nc(C(F)(F)F)nn3C)cc2)C(=O)N(C)C1=O | 202 to 204 °C
42 | CSc1nc2c(Cl)ccc(-n3c(=O)cc(C(F)(F)F)n(C)c3=O)c2s1 | 79 to 81 °C
43 | CCCCCOc1ccc(-c2ncc(C#N)c(Cl)n2)cc1 | 140 to 142 °C
44 | Cc1ccc2c(c1)C=Cc1cc(C)ccc1C2c1cn(-c2ccnc(N3C[C@H](O)C[C@H]3C(=O)O)n2)c(=O)[nH]c1=O | 208 to 210 °C

Row | Compound | melting point
45 | OC1Cc2ccc(C(F)(F)F)cc2Sc2ccc(F)cc21 (stereo not given) | 73 to 75 °C
46 | CCCCCCCN(CCCCCSc1nc2ccc([N+](=O)[O-])cc2[nH]1)C(=O)Nc1ccc(F)cc1F | 120 to 122 °C
47 | NC(N)=Nc1nc(-c2cccc(-c3n[nH]c(N)n3)n2)cs1 | > 300 °C
48 | C=CCNC(=O)c1ccc(N)cc1Br | 115 to 117 °C
49 | CCCCCCCNC(=O)Nc1ccccc1C(=O)NC1CCCN(C(c2ccccc2)c2ccccc2)C1 (stereo not given) | 112 °C
50 | CC(Oc1cccc(Oc2c(Cl)cc(C(F)(F)F)cc2Cl)c1)C(=O)O (stereo not given) | 120 °C
51 | CCOC(=O)/C=C/c1ccc(C(C)(C)C)c([N+](=O)[O-])c1 | 77 to 78 °C
52 | Cc1cc2c(c(C)c1N)C(c1ccc(C(C)C)cc1)C(C)(C)O2 (stereo not given) | 98 to 100 °C
53 | Cc1cc(O)c(S(=O)C23CC4CC(CC(C4)C2)C3)c(=O)o1 (stereo not given) | 174 °C
54 | OCC(CO)(COCc1ccccc1)COCc1ccccc1 | 73 °C
55 | O=C(Nc1cccnc1)N1CCN(c2cncc(-c3ccc(F)cc3F)n2)CC1 | 155 to 156 °C
56 | O=[N+]([O-])c1cccc2cncc(Br)c12 | 172 to 174 °C
57 | Cc1cc(NC(=O)C(=O)N2C(C)CCCC2C)cc(C)c1S(=O)(=O)C[N+](=O)[O-] (stereo not given) | 192 to 193 °C
58 | CCC(Cc1ccc(OC)c(S(N)(=O)=O)c1)NC(=O)C(F)(F)F (stereo not given) | 189 to 192 °C
59 | CC(=O)n1cc(C#N)c(-c2cccc(Cl)c2F)c1 | 141 to 142 °C
60 | N#CCCCOc1ccc(/C=C/C(=O)O)c(Oc2ncc(C(F)(F)F)cc2Cl)c1 | 183 to 185 °C
61 | Cn1ncc2c1-c1c(SC(C)(C)C)sc(C(=O)O)c1CC2 | 277 to 278 °C
62 | CC(CCl)N1C(=O)N(c2ccc(Cl)cc2)CC1C (stereo not given) | 70 to 72 °C
63 | Cc1[nH]c(=O)c(C#N)cc1-c1csc(N)n1 | 294 to 296 °C
64 | Cc1c(OCC(O)CN2CCOCC2)noc1-c1ccccc1 (stereo not given) | 94 to 95 °C

Further lines, results first:

Row | melting point | Compound
65 | 295 to 297 °C | Cc1ccccc1-c1c(NC(=O)C=Cc2ccc(O)c(O)c2)c(=O)oc2cc3c(cc12)CCC3
66 | 139 to 140 °C | O=C(O)COCCC1CCCN(c2cnc(-c3ccccc3)c(-c3ccccc3)n2)C1 (stereo not given)
67 | 208 to 210 °C | Cc1cccc(-c2n[nH]cc2-c2ccc(F)c(-c3cnc(C(C)(C)O)s3)c2)n1
68 | 190 to 193 °C | CC(=Cc1ccc2c(c1)S(=O)(=O)c1cc(C=C(C)c3ccccc3)ccc1N2C)c1ccccc1
69 | 181 to 182 °C | Cc1cc(Cn2nnc(C(N)=O)c2N)ccc1C(=O)c1ccccc1
70 | 157 to 158 °C | c1ccc(CN2CCN(c3nc4cccc5c4n3CCC5)CC2)cc1
71 | 143 to 145 °C | COc1ccc(Cl)cc1C(NC(C)=N)(c1ccccc1)c1ccccc1
72 | 173 to 174 °C | O=C(Cc1ccccc1)N[C@H](Cc1ccc(C(F)(F)F)cc1)[C@@H](O)c1ccc(F)cc1 (racemic)
73 | 159 to 160 °C | Cc1nc(N)nc(OCc2ccccc2)c1[N+](=O)[O-]
74 | 127 to 128 °C | CCOCc1nc2c(N)nc(C)cc2n1CCOCc1ccccc1
75 | 191 to 193 °C | O=C(Nc1ccc(C(=O)N2Cc3ccccc3Cc3ccccc32)cc1)c1ccccc1C(F)(F)F
76 | 114 to 116 °C | CN1CCCCC1CCn1nc(-c2c(-c3ccccc3)nn3ccccc23)ccc1=O (stereo not given)
77 | 70 to 72 °C | C=C(c1ccccc1OCCCCl)c1cccc2[nH]ccc12
78 | 146 to 147 °C | COc1ccc(Cc2nccc3ccccc23)cc1OC
79 | 74 to 75 °C | Cc1cc([N+](=O)[O-])c(OCc2ccccc2)c(Cl)c1C
80 | 123 to 126 °C | COCc1c(-c2ccon2)ncc2[nH]c3ccc(OCc4ccccc4)cc3c12
81 | 206 °C | Cc1cc(C)cc(NCc2ccc3nc(NC4CCN(CC(N)=O)CC4)n(Cc4nc(C)ccc4O)c3c2)c1
82 | 152 to 156 °C | Nc1nc(NCCNCC(O)COc2ccccc2)c2ccccc2n1 (stereo not given)

Row | melting point | Compound
83 | 51 to 54 °C | CC(C)C(=O)N1CCC(NC(=O)c2ccccc2Oc2ccc(Cl)cc2Cl)CC1
84 | > 250 °C | NC(=O)N1C(=O)C(C(=O)c2ccoc2)c2ncc(Cl)cc21 (stereo not given)
85 | 178 to 179 °C | CC(C)(O)Cn1c(CON)nc2c(N)nc3ccccc3c21
86 | > 300 °C | O=C(O)c1cc2c(-c3ccncc3)nccc2[nH]c1=O
87 | 129 to 130 °C | O=C1c2ccccc2C(=O)N1CCON1CCNC1=Nc1c(Cl)cccc1Cl
88 | 192 °C | O=C(O)Cc1cccc2c(-c3ccccc3)nccc12
89 | 237 to 241 °C | COc1cc2c(c3c1OC(C)(C)C3)C(c1cccc(NC(=O)c3ccc(CP(=O)(O)O)cc3)c1)=NC(C)(C)C2
90 | 63 to 65 °C | CCOC(=O)C(=O)c1ccc(OCCCOc2ccc(C(C)=O)c(O)c2)cc1
91 | 127 to 128 °C | CC(C)(C)OC(=O)NCc1cccc(C(=O)O)c1
92 | 195 to 197 °C | Cn1cc(C(=O)NCc2ccc(Cl)cc2)c(=O)c2cc(CN3CCOCC3)cc(C#Cc3cccnc3)c21
93 | 66 to 67 °C | CC(CC(=O)O)c1ccc(-c2ccccc2)c(Cl)c1 (stereo not given)
94 | 158 to 159 °C | Cc1cc(NC(=O)Cc2ccccc2)cc(C)c1S(=O)(=O)C[N+](=O)[O-]
95 | 105 to 115 °C | N=C(Nc1cc(Cl)cc(NC(=O)/C=C/c2ccccc2Cl)c1)c1ccccc1
96 | 176 to 177 °C | O=C(O)Cc1nn(CC(=S)Nc2cc(C(F)(F)F)ccc2Br)c(=O)c2ccccc12
97 | 290 to 292 °C | CCCn1c(=O)c2c(nn3cc[nH]c23)n(Cc2ccccc2)c1=O
98 | 236 to 238 °C | CCc1cccc(C)c1CNc1cc(C(=O)NC)nc2c1nc(C)n2C
99 | 200 to 201 °C | CCS(=O)(=O)c1ccc(-c2coc3ccc(-c4nnc(C)o4)cc23)cc1F
100 | 91 to 96 °C | NCC(=O)SCC(Cc1ccccc1)C(=O)Nc1cccc(C(=O)O)c1 (stereo not given)
